Test results as given in patent US11098060B2, “Macrocycle containing aminopyrazole and pyrimidine and pharmaceutical composition and use thereof” (CHIA TAI TIANQING PHARMACEUTICAL GROUP CO., LTD., priority 2017, dated 2021).

Each compound was assayed against TrkA^WT kinase (Homo sapiens (Human), UniProt P04629) (assay: Assay for inhibitory activity (IC50) against TrkA^WT (HTRF)). Conditions: TrkA 1 nM, ATP 40 μM, TK peptide 1 μM, 60 min at 23° C.
TrkA^WT kinase, sequence (P04629 33-796): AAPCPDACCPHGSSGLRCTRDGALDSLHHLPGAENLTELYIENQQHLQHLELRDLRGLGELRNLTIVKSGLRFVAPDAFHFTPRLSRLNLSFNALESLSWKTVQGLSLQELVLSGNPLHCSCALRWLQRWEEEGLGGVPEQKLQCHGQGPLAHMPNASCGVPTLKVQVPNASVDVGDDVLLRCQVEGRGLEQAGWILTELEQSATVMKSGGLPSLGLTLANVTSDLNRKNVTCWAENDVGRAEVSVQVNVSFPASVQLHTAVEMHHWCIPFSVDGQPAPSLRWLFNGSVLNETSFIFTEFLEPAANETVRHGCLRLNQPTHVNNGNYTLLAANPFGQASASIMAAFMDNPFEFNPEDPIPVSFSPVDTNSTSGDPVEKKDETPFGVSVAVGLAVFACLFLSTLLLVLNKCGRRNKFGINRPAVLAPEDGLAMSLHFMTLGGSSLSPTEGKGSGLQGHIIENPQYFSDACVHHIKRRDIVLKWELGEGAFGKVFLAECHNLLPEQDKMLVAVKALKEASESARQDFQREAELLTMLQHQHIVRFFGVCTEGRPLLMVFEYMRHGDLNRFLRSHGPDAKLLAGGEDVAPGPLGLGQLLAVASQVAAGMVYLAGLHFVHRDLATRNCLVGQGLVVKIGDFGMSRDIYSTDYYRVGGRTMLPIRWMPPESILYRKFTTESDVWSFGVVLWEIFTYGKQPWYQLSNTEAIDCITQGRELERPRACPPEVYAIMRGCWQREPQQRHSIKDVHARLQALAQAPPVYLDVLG
Type: biochemical
`Nc1nn2ccc3nc2c1C(=O)NCCCOc1ncc(F)cc1C1CCCN31` (stereo not shown) [Example 2] showed an IC50 of 0.57 ± 0.1 nM. With `Nc1nn2ccc3nc2c1C(=O)NCCOc1ncccc1[C@H]1CCCN31` [Example 5, (R,1^3E,1^4E)-1^2-amino-4-oxa-7-aza-1(5,3)-pyrazolo[1,5-a]pyrimidine-3(3,2)-pyridine-2 (1,2)-pyrrolidylcyclooctanephane-8-one] the IC50 was 0.37 ± 0.04 nM. `Nc1nn2ccc3nc2c1C(=O)NCCCOc1ncc(F)cc1C1C[C@@H](F)CN31` (stereo partly shown) [Example 13, (1^3E,1^4E, 2^2R,2^4R)-1^2-amino-2^4,3^5-difluoro-4-oxa-8-aza-1(5,3)-pyrazolo[1,5-a]pyrimidine-3(3,2)-pyridine-2 (1,2)-pyrrolidylcyclononanephane-9-one] was tested, and the IC50 was 0.64 ± 0.02 nM. `Nc1nn2ccc3nc2c1C(=O)NCCCn1cc(F)cc(c1=O)C1CCCN31` (stereo not shown) [Example 24, (1^3E,1^4E)-1^2-amino-3^5-fluoro-3^1,3^2-dihydro-7-aza-1(5,3)-pyrazolo[1,5-a]pyrimidine-3(3,1)-pyridine-2(1,2)-pyrrolidylcyclooctanephane-3^2,8-dione] showed an IC50 of 0.85 ± 0.07 nM. `Nc1nn2ccc3nc2c1C(=O)NCCCn1cc(F)cc(c1=O)[C@H]1CCCN31` [Example 22, (1^3E,1^4E,2^2R)-1^2-Amino-3^5-fluoro-3^1,3^2-dihydro-7-aza-1(5,3)-pyrazolo[1,5-a]pyrimidine-3(3,1)-pyridine-2(1,2)-pyrrolidylcyclooctanephane-3^2,8-dione] showed an IC50 of 0.57 ± 0.03 nM. With `Nc1nn2ccc3nc2c1C(=O)NCCOc1ccc(F)cc1[C@@H]1CCCN31` [Example 20, (S,1^3E,1^4E)-1^2-amino-3^5-fluoro-4-oxa-7-aza-1(5,3)-pyrazolo [1,5-a]pyrimidine-2(1,2)-pyrrolidine-3(1,2)-benzocyclooctanephane-8-one] the IC50 was 3.8 ± 0.21 nM. In the case of `Nc1nn2ccc3nc2c1C(=O)NCCOc1ncccc1C1CCCN31` (stereo not shown) [Example 11, (1^3E, 1^4E)-1^2-amino-4-oxa-7-aza-1(5,3)-pyrazolo[1,5-a]pyrimidine-3(3,2)-pyridine-2 (1,2)-pyrrolidylcyclooctanephane-8-one], the IC50 is reported as 1.04 ± 0.34 nM. `Nc1nn2ccc3nc2c1C(=O)NCCCCc1cccc(n1)C1CCCN31` (stereo not shown) [Example 3, (1^3E,1^4E)-1^2-amino-4-oxa-8-aza-1(5,3)-pyrazolo[1,5-a]pyrimidine-3(2,6)-pyridine-2 (1,2)-pyrrolidylcyclononanephane-9-one] was tested, and the IC50 was 0.84 ± 0.12 nM. `Nc1nn2ccc3nc2c1C(=O)NCCCOc1ncccc1[C@H]1CCCN31` [Example 6, (R,1^3E,1^4E)-1^2-amino-4-oxa-8-aza-1(5,3)-pyrazolo[1,5-a]pyrimidine-3(3,2)-pyridine-2 (1,2)-pyrrolidylcyclononanephane-9-one] gave an IC50 of 0.47 ± 0.26 nM.

Each compound was assayed against TrkA^G595R (Kinase domain) kinase (Homo sapiens (Human), UniProt P04629, G595R) (assay: Assay for inhibitory activity (IC50) against TrkA^G595R kinase (HTRF)). Conditions: kinase 0.2 nM, TK peptide 1 μM, 120 min at 23° C.
TrkA^G595R (Kinase domain) kinase, sequence (P04629 510-781 G595R): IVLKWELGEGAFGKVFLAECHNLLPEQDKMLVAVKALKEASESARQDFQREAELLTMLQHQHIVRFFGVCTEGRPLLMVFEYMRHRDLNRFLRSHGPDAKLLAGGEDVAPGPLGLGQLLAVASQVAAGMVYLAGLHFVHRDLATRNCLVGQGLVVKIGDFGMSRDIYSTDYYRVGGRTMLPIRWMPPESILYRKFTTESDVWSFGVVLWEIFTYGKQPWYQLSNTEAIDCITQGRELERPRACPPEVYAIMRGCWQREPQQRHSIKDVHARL
Type: biochemical
`Nc1nn2ccc3nc2c1C(=O)NCCCCc1ncc(F)cc1[C@H]1C[C@H](F)CN31` [Example 31, (1^3E,1^4E,2^2R,2^4S)-1^2-amino-2^4,3^5-difluoro-8-aza-1(5,3)-pyrazolo[1,5-a]pyrimidine-3(3,2)-pyridine-2(1,2)-pyrrolidylcyclononanephane-9-one] showed an IC50 of 1.45 ± 0.11 nM. For `C[C@H]1CNC(=O)c2c(N)nn3ccc(nc23)N2CCC[C@@H]2c2cc(F)ccc2O1` [Example 32, (1^3E,1^4E,2^2R,5S)-1^2-amino-3^5-fluoro-5-methyl-4-oxa-7-aza-1(5,3)-pyrazolo[1,5-a]pyrimidine-(1,2)-pyrrolidine-3(1,2)-benzocyclooctanephane-8-one], the IC50 was 1.28 ± 0.05 nM. Compound `C[C@@H]1COc2ncc(F)cc2[C@H]2C[C@H](F)CN2c2ccn3nc(N)c(c3n2)C(=O)N1` [Example 19, (1^3E,1^4E,2^2R,2^4S,6R)-1^2-amino-2^4, 3^5-difluoro-6-methyl-4-oxa-7-aza-1(5,3)-pyrazolo[1,5-a] pyrimidine-3(3,2)-pyridine-2(1,2)-pyrrolidylcyclooctanephane-8-one] has an IC50 of 0.73 ± 0.07 nM. In the case of `Nc1nn2ccc3nc2c1C(=O)NCC(F)(F)COc1ncc(F)cc1[C@H]1C[C@H](F)CN31` [Example 35, (1^3E,1^4E,2^2R,2^4S)-1^2-amino-2^4,3^5,6,6-tetrafluoro-4-oxa-8-aza-1(5,3)-pyrazol[1,5-a]pyrimidine-3(3,2)-pyridine-2(1,2)-pyrrolidylcyclononanephane-9-one], the IC50 is reported as 1.36 ± 0.02 nM.
